± gives the standard deviation of the averaged measurements.
Assays:
Experiment in all cases: level (log10 ratio to DMSO vehicle control); higher = higher biomarker level / cell amount than vehicle control
[1] = compound: OCCC(F)(F)C(F)(F)C(F)(F)C(F)(F)F [4:2 Fluorotelomer alcohol] (in DMSO)
Procedure: (§1)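 BioMAP Diversity Plus panel of 12 human primary cell co-culture systems (3C, 4H, LPS, SAg, BT, BF4T, BE3C, CASM3C, HDF3CGF, KF3CT, MyoF, Mphg). Compounds were added 1 h before stimulation and left for 24 h (MyoF 48 h; BT 72 h for soluble read-outs or 6 d for IgG). Biomarkers were read by ELISA, cytotoxicity by SRB, PBMC viability and proliferation by Alamar Blue. Each well value was divided by the mean of 8 DMSO control wells on the same plate and log10 transformed; duplicate blinded samples were tested at 4 concentrations.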

[2] = compound: O=C(O)C(F)(OC(F)(F)C(F)(OC(F)(F)C(F)(OC(F)(F)C(F)(F)C(F)(F)F)C(F)(F)F)C(F)(F)F)C(F)(F)F [Perfluoro-(2,5,8-trimethyl-3,6,9-trioxadodecanoic)acid] (in DMSO)
Procedure: as §1

Perfluorononanoic acid = compound: O=C(O)C(F)(F)C(F)(F)C(F)(F)C(F)(F)C(F)(F)C(F)(F)C(F)(F)C(F)(F)F [Perfluorononanoic acid] (in DMSO)
Procedure: as §1

[3] = compound: O=S(=O)(O)CCC(F)(F)C(F)(F)C(F)(F)C(F)(F)C(F)(F)C(F)(F)C(F)(F)C(F)(F)F [8:2 Fluorotelomer sulfonic acid] (in DMSO)
Procedure: as §1

[4] = compound: O=S(=O)(O)C(F)(F)C(F)(F)C(F)(F)C(F)(F)C(F)(F)C(F)(F)C(F)(F)F [Perfluoroheptanesulfonic acid] (in DMSO)
Procedure: as §1

Perfluoroundecanoic acid = compound: O=C(O)C(F)(F)C(F)(F)C(F)(F)C(F)(F)C(F)(F)C(F)(F)C(F)(F)C(F)(F)C(F)(F)C(F)(F)F [Perfluoroundecanoic acid] (in DMSO); conditions: 6700 nM
Procedure: as §1

[5] = compound: C=C(C)C(=O)OCCC(F)(F)C(F)(F)C(F)(F)C(F)(F)C(F)(F)C(F)(F)C(F)(F)C(F)(F)F [8:2 Fluorotelomer methacrylate] (in DMSO)
Procedure: as §1

Test System | level (log10) ([1]; 6700 nM) | level (log10) ([1]; 20000 nM) | level (log10) ([1]; 60000 nM) | level (log10) ([2]; 1100 nM) | level (log10) ([2]; 3300 nM) | level (log10) ([2]; 10000 nM) | level (log10) (Perfluorononanoic acid; 6700 nM) | level (log10) (Perfluorononanoic acid; 20000 nM) | level (log10) ([3]; 6700 nM) | level (log10) ([3]; 20000 nM) | level (log10) ([3]; 60000 nM) | level (log10) ([4]; 1500 nM) | level (log10) ([4]; 4400 nM) | level (log10) ([4]; 13000 nM) | level (log10) ([4]; 40000 nM) | level (log10) (Perfluoroundecanoic acid) | level (log10) ([5]; 6700 nM) | level (log10) ([5]; 20000 nM)
MyoF:PAI-I | -0.0185 ± 0.018 | -0.0215 ± 0.019 | -0.0155 ± 0.00071 | 0.005 ± 0.021 | 0.006 ± 0.0085 | 0.0085 ± 0.016 | -0.01 ± 0.028 | 0.0105 ± 0.03 | -0.008 ± 0.011 | -0.009 ± 0.0042 | 0.0185 ± 0.019 | 0.008 ± 0.0085 | 0.0085 ± 0.00071 | 0.005 ± 0.0028 | 0.019 ± 0.023 | -0.01 ± 0.018 | 0.0005 ± 0.0078 | -0.013 ± 0.0071
MyoF:SRB | -0.0015 ± 0.0035 | 0.0015 ± 0.0035 | -0.0015 ± 0.005 | -0.0065 ± 0.005 | 0.008 ± 0.018 | 0.0085 ± 0.015 | 0.0025 ± 0.0064 | -0.0155 ± 0.0021 | -0.0005 ± 0.0021 | -0.009 ± 0.0014 | -0.0035 ± 0.0035 | -0.009 ± 0.0099 | 0.002 ± 0.0028 | 0.002 ± 0.0014 | -0.007 ± 0.0042 | -0.029 ± 0.014 | 0.0025 ± 0.0064 | -0.0015 ± 0.005
MyoF:TIMP-1 | -0.001 ± 0.04 | 0.013 ± 0.075 | 0.009 ± 0.059 | 0.007 ± 0.0014 | 0.0155 ± 0.013 | 0.022 ± 0.024 | 0.0025 ± 0.03 | -0.034 ± 0.033 | -0.0185 ± 0.0035 | 0.0095 ± 0.021 | -0.008 ± 0.018 | 0.021 ± 0.04 | 0.013 ± 0.061 | 0.033 ± 0.054 | 0.11 ± 0.0099 | -0.117 ± 0.055 | 0.0115 ± 0.08 | 0.0185 ± 0.026
MyoF:alpha-SM Actin | -0.021 | -0.0225 ± 0.0035 | -0.0345 ± 0.018 | -0.002 ± 0.027 | -0.0105 ± 0.00071 | 0.002 ± 0.062 | -0.0165 ± 0.028 | -0.0645 ± 0.042 | 0.034 ± 0.02 | 0.001 ± 0.014 | -0.0125 ± 0.025 | 0.0025 ± 0.1 | 0.0035 ± 0.077 | -0.021 ± 0.064 | 0.0025 ± 0.069 | -0.061 ± 0.0085 | -0.009 ± 0.081 | 0.0025 ± 0.079
MyoF:bFGF | -0.0015 ± 0.013 | -0.0025 ± 0.015 | 0.004 ± 0.044 | -0.014 ± 0.0028 | -0.0045 ± 0.0035 | 0.0075 ± 0.005 | -0.0025 ± 0.025 | 0.015 ± 0.014 | 0.0045 ± 0.012 | 0.006 ± 0.023 | 0.0265 ± 0.0021 | 0.021 ± 0.0071 | 0.0185 ± 0.005 | 0.0105 ± 0.00071 | 0.039 ± 0.02 | 0.0035 ± 0.0092 | -0.0105 ± 0.00071 | 0.011 ± 0.014
lMphg:CCL2/MCP-1 | -0.018 ± 0.024 | -0.0325 ± 0.0035 | -0.014 ± 0.031 | 0.0025 ± 0.012 | -0.0095 ± 0.0078 | -0.0125 ± 0.018 | 0.0105 ± 0.0064 | 0.0325 ± 0.03 | 0.0075 ± 0.019 | -0.019 ± 0.016 | 0.0155 ± 0.00071 | -0.009 ± 0.03 | -0.004 ± 0.047 | 0.003 ± 0.0042 | 0.035 ± 0.0028 | 0.0025 ± 0.028 | -0.032 | -0.012 ± 0.014

From the supplement of paper PMC10331698
